Read-outs that look alike come from different tables or passages of the source.
Assays:
[1] = molecular target: T1, Ros1 enzyme (Homo sapiens, UniProt P08922); assay: Ros1 enzymatic assay; assay type: biochemical; conditions: Ros1 enzymatic assay; read-out: ROS1 pIC50 (converted)
T1 construct: 0.5 μg/ml Ros1 enzyme
Summary of the method: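 First, compounds meet Ros1 enzyme mix plus substrate mix containing IRS-Tide and 33P-labelled ATP at 20 μM. Next, incubation lasts 120 minutes at room temperature. Then EDTA stop buffer with streptavidin beads is added for 15 minutes, and bead-bound radioactivity is imaged.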

[2] = molecular target: T2, Ba/F3 cells containing Ros1 wild-type protein (Homo sapiens, UniProt P08922, cells depend on it, form not given); assay: Ba/F3-Ros1 cell proliferation assay, wild-type Ros1; assay type: cell-based, murine; conditions: without IL-3
T2 construct: The background only speaks of 'a number of different unrelated proteins' and names SLC34A2-ROS1 for HCC78 cells
Summary of the method: (§1)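 Ba/F3 cells expressing wild-type, L2026M or G2032R Ros1 (20000 per well) were incubated with DMSO-solubilized compounds in phenol red-free RPMI-1640 with 10% FBS and 2 mM L-glutamine at 37 °C, 5% CO2 for 24 hours. Viability was then read by Alamar Blue fluorescence (ex 540/em 590 nm) after 4 h.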

[3] = molecular target: Ba/F3 cells containing Ros1 with a mutation at the gatekeeper residue (L2026M) (Homo sapiens, UniProt P08922, L2026M, cells depend on it, form not given); assay: Ba/F3-Ros1 cell proliferation assay, L2026M gatekeeper mutant; assay type: cell-based, murine; conditions: without IL-3
Summary of the method: as §1

[4] = molecular target: Ba/F3 cells containing Ros1 with G2032R mutation (Homo sapiens, UniProt P08922, G2032R, cells depend on it, form not given); assay: Ba/F3-Ros1 cell proliferation assay, G2032R crizotinib-resistance mutant; assay type: cell-based, murine; conditions: without IL-3
Procedure: Ba/F3-Ros1 Cell Proliferation Assay
This assay was carried out with Ba/F3 cells containing three different versions of Ros1: the wild-type protein, protein with a mutation at the gatekeeper residue (L2026M), and protein with a mutation identified in a tumor from a patient that became resistant to crizotinib (Xalkori®) treatment (G2032R). Compounds were solubilized in 100% DMSO (dimethyl sulfoxide) and sprayed into polystyrene, tissue culture treated 384-well plates. A 50 μl volume of cell culture medium (phenol red free RPMI-1640, 10% FBS (fetal bovine serum), 2 mM L-Glutamine) containing 20000 Ba/F3-Ros1 cells was added to each well and the plates were placed in an incubator at 37° C. and 5% CO2. After 24 hours, 10 μl of Alamar Blue solution (0.5 mM K3Fe(CN)6, 0.5 mM K4Fe(CN)6, 0.15 mM Resazurin and 100 mM Phosphate Buffer) was added to the wells, incubated for 4 hours at 37° C. and 5% CO2 before RFU's (Relative Fluorescence Units) (ex. 540 nm., em. 590 nm.) were measured in a fluorescence plate reader.

[5] = system: Ba/F3 cells containing Ros1 wild-type protein + IL-3; assay: Ba/F3-Ros1 cell proliferation counter-screen, wild-type protein in the presence of 10 ng/ml murine IL-3; assay type: cell-based; conditions: Mus musculus, BaF3, 24 h, read-out: BaF3-ROS1 + IL3 pIC50 (converted)
Summary of the method: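 Compounds were dispensed from DMSO into plates, and 20000 Ba/F3 cells carrying wild-type Ros1 were added in phenol red-free RPMI-1640 with 10% FBS plus 10 ng/ml murine IL-3. After 24 h at 37 °C, Alamar Blue was added for 4 h and fluorescence recorded.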

[6] = system: HCC78 non-small cell lung cancer cells; assay: HCC78 cell proliferation assay; assay type: cell-based; conditions: Homo sapiens, HCC78, 96 h, read-out: HCC-78 PROL pEC50 (converted)
Summary of the method: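 HCC78 NSCLC cells (~1000/well) in RPMI-1640 with 10% FBS were treated 24 h after seeding and exposed to compound for 4 days at 37 °C. Viability was read by MTT, with absorbance at 538 nm after DMSO/glycine solubilization.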

[7] = system: Ros pY2274 in HCC78 cells; assay: pROS1 immunofluorescence assay in HCC78 cells; assay type: cell-based; conditions: Homo sapiens, read-out: HCC78-pRos1 pIC50 (converted)
Procedure: pROS1 Immunofluorescence Assay in HCC78 Cells
Approximately 20000 HCC78 non-small cell lung cancer cells in 180 μl of cell culture medium (RPMI-1640, 10% FBS, 2 mM L-Glutamine, 10 mM Hepes, 1 mM sodium pyruvate, 4.5 g/L glucose, 1.5 g/L sodium bicarbonate, 25 μg/ml Gentamycin) were seeded in each well of a 96-well polystyrene, poly-D-lysine coated plate and incubated at 37° C. and 5% CO2. After 24 hours, compounds were diluted in cell culture medium from which 20 μl was added to the wells containing cells and incubated for 4 hours at 37° C. and 5% CO2. The medium was removed and the cells were fixed by adding 100 μl of 5% formaldehyde in TBS (tris-buffered saline) (50 mM Tris.HCl, pH 7.4, 150 mM NaCl) and incubating for 15 minutes at room temperature. The formaldehyde was removed and replaced with methanol for 10 minutes at room temperature, after which the cells were washed 3 times with TBS containing 1% Triton X-100 and incubated in Odyssee (Li-Cor) blocking buffer for 1 hour at room temperature. The cells were then incubated with the primary rabbit antibody directed against Ros pY2274 (cst-3078) diluted 1/200 in blocking buffer for 24 hours at room temperature. The cells were washed three times with TBS containing 0.1% Triton X-100 and incubated with a secondary anti-rabbit antibody conjugated to the fluorescent dye Alexafluor 680 in blocking buffer for 1 hour at room temperature. The cells were washed three times with TBS containing 0.1% Triton X-100 and left to dry before measuring RFUs (Relative Fluorescence Units) at 700 nm using a fluorescence imager.
The same experiment was performed using total Ros1 antibody (sc-6347) diluted 1/1000 instead of Ros1 pY2274 antibody and an anti-goat antibody conjugated to IRDye800cw as a secondary antibody. RFUs were measured at […]. The signals from total Ros1 detection were used to normalize the Ros1 pY2274 values.

[8] = counter-screen, wild-type, 10 ng/ml murine IL-3
[9] = HCC78 cells, 4 hours, Ros pY2274 normalized to total Ros1

T2 sequence (P08922 whole entry, stated change not applied): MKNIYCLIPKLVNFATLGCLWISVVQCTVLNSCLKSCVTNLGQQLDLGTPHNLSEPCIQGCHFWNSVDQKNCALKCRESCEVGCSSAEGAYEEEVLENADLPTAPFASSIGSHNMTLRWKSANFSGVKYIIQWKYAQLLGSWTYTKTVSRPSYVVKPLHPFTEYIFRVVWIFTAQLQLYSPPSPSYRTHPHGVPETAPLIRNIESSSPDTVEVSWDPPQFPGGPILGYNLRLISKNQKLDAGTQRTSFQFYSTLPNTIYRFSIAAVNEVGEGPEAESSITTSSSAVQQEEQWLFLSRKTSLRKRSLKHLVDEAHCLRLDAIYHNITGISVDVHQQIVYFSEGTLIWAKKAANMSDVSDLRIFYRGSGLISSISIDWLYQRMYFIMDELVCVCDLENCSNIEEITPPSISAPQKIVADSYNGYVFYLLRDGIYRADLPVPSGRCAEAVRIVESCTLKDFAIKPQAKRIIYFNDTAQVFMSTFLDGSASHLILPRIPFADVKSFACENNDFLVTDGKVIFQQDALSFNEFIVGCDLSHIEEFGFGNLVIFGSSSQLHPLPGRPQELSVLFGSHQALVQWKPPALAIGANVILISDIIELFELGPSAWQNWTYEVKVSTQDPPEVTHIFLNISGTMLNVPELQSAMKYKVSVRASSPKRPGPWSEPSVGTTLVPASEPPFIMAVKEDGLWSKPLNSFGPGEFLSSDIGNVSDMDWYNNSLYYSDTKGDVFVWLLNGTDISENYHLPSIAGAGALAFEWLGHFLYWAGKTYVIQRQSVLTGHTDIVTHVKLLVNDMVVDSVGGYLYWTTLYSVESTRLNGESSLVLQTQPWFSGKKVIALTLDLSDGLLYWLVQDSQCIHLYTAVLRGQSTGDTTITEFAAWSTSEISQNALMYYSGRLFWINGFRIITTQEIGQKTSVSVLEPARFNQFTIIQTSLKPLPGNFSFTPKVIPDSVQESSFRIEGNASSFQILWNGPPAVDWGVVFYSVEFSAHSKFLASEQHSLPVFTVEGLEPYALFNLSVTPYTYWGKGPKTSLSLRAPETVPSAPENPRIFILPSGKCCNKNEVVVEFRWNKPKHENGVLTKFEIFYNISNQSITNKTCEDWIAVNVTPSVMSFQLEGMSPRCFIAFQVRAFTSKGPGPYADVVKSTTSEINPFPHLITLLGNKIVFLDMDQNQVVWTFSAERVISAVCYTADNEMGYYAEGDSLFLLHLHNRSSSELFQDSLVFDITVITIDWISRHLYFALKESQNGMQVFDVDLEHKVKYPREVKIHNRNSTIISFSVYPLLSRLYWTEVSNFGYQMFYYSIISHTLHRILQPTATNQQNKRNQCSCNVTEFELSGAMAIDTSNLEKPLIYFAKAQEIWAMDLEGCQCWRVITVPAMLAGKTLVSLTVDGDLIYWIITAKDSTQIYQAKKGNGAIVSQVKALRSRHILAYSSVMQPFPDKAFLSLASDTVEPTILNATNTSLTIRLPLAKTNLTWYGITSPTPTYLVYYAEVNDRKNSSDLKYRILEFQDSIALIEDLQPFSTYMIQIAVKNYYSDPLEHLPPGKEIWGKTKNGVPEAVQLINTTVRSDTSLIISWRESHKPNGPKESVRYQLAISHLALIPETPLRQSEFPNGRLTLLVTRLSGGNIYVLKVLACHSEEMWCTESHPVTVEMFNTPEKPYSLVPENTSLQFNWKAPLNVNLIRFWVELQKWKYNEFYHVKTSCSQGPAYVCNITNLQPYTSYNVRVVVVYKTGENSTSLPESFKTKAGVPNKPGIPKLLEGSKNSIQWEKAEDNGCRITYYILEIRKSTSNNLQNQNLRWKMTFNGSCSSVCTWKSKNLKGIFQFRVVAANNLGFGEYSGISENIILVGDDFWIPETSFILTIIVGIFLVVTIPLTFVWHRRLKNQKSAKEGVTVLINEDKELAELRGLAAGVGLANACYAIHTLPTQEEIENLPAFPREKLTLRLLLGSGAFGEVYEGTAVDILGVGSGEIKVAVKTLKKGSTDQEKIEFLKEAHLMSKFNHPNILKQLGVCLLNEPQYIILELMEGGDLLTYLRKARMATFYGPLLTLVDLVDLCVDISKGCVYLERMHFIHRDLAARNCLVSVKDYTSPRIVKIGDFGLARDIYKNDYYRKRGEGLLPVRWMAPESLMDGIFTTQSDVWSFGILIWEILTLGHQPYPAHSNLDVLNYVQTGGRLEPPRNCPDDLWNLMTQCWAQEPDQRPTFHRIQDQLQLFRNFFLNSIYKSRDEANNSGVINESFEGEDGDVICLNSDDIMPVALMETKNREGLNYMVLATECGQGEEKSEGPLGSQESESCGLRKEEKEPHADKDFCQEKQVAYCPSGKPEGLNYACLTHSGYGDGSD
Chain of Ba/F3 cells containing Ros1 with G2032R mutation (P08922 whole entry G2032R, form open): as the sequence (P08922 whole entry, stated change not applied) above, with G2032R counted along it
Chain of Ba/F3 cells containing Ros1 with a mutation at the gatekeeper residue (L2026M) (P08922 whole entry L2026M, form open): as the sequence (P08922 whole entry, stated change not applied) above, with L2026M counted along it
T1 sequence (P08922 28-2347): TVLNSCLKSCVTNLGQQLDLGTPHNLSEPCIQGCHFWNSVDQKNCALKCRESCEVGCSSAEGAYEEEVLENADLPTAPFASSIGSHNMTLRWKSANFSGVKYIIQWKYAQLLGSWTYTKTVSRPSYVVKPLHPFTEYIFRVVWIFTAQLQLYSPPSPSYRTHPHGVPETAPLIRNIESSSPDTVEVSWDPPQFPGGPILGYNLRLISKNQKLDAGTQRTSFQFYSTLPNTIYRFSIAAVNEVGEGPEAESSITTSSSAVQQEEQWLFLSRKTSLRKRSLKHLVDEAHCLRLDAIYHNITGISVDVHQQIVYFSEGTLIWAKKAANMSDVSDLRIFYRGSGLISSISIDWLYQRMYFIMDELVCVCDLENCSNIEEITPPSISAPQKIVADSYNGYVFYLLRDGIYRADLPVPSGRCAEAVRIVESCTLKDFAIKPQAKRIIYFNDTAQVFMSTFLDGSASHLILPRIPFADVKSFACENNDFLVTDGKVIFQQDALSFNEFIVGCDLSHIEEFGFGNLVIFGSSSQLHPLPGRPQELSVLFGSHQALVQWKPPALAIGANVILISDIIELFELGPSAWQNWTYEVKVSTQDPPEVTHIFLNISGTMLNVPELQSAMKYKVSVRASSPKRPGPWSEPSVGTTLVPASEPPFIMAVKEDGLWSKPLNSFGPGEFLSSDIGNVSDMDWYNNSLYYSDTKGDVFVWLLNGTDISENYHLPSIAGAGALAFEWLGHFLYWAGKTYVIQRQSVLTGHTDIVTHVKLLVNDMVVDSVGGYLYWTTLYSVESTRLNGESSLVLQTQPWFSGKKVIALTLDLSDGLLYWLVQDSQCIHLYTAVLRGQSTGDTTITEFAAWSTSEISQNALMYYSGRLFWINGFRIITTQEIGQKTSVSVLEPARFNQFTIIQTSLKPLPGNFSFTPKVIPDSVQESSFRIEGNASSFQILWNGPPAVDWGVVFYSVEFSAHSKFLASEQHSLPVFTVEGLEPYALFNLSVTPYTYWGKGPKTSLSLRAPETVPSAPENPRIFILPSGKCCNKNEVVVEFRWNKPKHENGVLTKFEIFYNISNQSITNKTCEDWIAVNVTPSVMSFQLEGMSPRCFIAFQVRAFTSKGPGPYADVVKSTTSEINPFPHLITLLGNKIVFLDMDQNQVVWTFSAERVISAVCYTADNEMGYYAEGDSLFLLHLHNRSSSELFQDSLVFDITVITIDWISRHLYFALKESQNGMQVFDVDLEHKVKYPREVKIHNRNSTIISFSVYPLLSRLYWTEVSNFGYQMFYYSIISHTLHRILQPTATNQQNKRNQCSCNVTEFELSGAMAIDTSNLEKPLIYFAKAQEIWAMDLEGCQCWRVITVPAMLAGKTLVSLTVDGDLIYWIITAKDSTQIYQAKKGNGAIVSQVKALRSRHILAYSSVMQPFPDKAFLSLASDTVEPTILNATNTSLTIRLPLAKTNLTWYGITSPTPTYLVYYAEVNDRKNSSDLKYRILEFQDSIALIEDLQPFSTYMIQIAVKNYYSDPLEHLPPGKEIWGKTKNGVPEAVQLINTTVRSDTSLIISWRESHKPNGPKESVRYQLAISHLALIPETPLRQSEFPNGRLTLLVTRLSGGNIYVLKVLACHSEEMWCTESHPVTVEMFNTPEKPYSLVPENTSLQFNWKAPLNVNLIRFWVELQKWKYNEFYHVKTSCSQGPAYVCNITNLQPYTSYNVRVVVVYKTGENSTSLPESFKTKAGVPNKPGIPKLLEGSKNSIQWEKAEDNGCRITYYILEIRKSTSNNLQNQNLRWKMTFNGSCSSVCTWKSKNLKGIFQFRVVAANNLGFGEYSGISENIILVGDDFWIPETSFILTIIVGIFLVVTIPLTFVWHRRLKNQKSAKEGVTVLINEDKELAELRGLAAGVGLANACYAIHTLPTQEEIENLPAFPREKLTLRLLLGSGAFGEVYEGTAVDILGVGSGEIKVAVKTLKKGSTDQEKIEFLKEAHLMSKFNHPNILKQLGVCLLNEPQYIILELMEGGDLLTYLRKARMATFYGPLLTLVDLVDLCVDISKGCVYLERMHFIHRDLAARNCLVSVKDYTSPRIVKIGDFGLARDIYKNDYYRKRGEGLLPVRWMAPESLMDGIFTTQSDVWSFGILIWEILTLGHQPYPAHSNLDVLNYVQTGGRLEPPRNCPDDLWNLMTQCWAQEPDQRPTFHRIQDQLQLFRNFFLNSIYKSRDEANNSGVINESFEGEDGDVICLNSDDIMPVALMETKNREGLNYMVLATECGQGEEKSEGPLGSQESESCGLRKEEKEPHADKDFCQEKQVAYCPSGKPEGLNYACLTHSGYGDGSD

EC50 ([6]; HCC78 cells, 4 days, MTT)	Structure (SMILES)	IC50 [1]	BaF3-ROS1-IL3 pIC50 [2]	Ba/F3 Ros1 L2026M (-IL-3) pIC50 [3]	Ba/3 Ros1 G2032R (-IL-3) pIC50 [4]	CC50 [5]	EC50 [6]	IC50 ([7]; HCC78, 4 h)	melting point	CC50 [5, 8]	IC50 [7, 9]
–	O=C1NCCn2nc(-c3ccncc3)c(-c3ccc(OCc4ccc(C5CC5)cc4)cc3)c21 [Compound 4]	39.8 nM	7.6	7.4	6.8	> 10000 nM	200 nM	79.4 nM	262 °C	–	–
–	CC(C)c1ccc(COc2ccc(-c3c(-c4ccncc4)nn4c3C(=O)NCC4)c(F)c2)cc1 [Compound 6]	10 nM	7.9	7.7	7.4	> 10000 nM	63.1 nM	15.8 nM	271 °C	–	–
–	CC(C)c1ccc(COc2ccc(-c3c(-c4ccnc(N)c4)nn4c3C(=O)NCC4)cc2)cc1 [Compound 7]	39.8 nM	7.4	7.4	6.8	> 10000 nM	251 nM	100 nM	267 °C	–	–
–	CC(C)c1ccc(COc2ccc(-c3c(-c4ccncc4)nn4c3C(=O)N(CCO)CC4)cc2F)cc1 [Compound 19]	12.6 nM	8.2	8.0	7.5	> 10000 nM	< 31.6 nM	–	172 °C	–	–
–	CC(C)c1ccc(COc2ccc(-c3c(-c4ccncc4)nn4c3C(=O)N(CCO)CC4)c(F)c2)cc1 [Compound 21]	10 nM	7.8	7.6	7.4	> 10000 nM	39.8 nM	–	141 °C	–	–
–	CC(C)c1ccc(COc2ccc(-c3c(-c4ccncc4)nn4c3C(=O)N(CCO)CC4)c(C#N)c2)cc1 [Compound 28]	15.8 nM	7.8	7.7	7.3	> 10000 nM	63.1 nM	–	185 °C	–	–
–	CC(C)c1ccc(COc2ccc(-c3c(-c4ccncc4)nn4c3C(=O)N(CC(C)(C)O)CC4)cc2)cc1 [Compound 51]	79.4 nM	7.2	7.3	6.6	> 10000 nM	100 nM	–	211 °C	–	–
100 nM	CC(C)c1ccc(COc2ccc(-c3c(-c4ccncc4)nn4c3C(=O)N(CCOCCO)CC4)cc2)cc1 [Compound 53]	39.8 nM	7.4	6.9	7.0	–	–	–	121 °C	> 10000 nM	–
–	CNC(=O)CN1CCn2nc(-c3ccncc3)c(-c3ccc(OCc4ccc(C(C)C)cc4)cc3)c2C1=O [Compound 63]	100 nM	7.1	7.3	6.7	> 10000 nM	398 nM	–	161 °C	–	–
–	COCCc1cc(COc2ccc(-c3c(-c4ccncc4)nn4c3C(=O)NCC4)cc2)ccc1C(C)C [Compound 84]	25.1 nM	7.7	7.2	7.0	> 10000 nM	31.6 nM	–	208 °C	–	–
–	CC(C)c1cc(F)c(COc2ccc(-c3c(-c4ccncc4)nn4c3C(=O)N(CCO)CC4)cc2)cc1F [Compound 97]	158 nM	6.9	6.3	<5	> 10000 nM	3160 nM	–	147 °C	–	–
1000 nM	COc1ccc(COc2ccc(-c3c(-c4ccncc4)nn4c3C(=O)NCC4)cc2)cc1 [Compound 112]	158 nM	6.8	–	5.8	–	–	–	260 °C	> 10000 nM	316 nM
–	CC(C)c1ccc(COc2ccc(-c3c(-c4ccncn4)nn4c3C(=O)NCC4)cc2)cc1 [Compound 158]	50.1 nM	7.4	7.4	6.5	> 10000 nM	316 nM	126 nM	–	–	–
–	CC(C)c1ccc(COc2ccc(-c3c(-c4ccncn4)nn4c3C(=O)N(CCO)CC4)cc2)cc1 [Compound 159]	50.1 nM	7.3	7.2	6.4	> 10000 nM	63.1 nM	–	160 °C	–	–
1580 nM	c1cc(-c2nn3c(c2-c2ccc(OCc4ccc(C5CC5)cc4)cc2)CNC2(CC2)C3)ccn1 [Compound 171]	398 nM	6.2	–	6.0	–	–	–	152 °C	> 10000 nM	501 nM
3980 nM	c1cc(-c2nn3c(c2-c2ccc(OCc4ccc(C5CC5)cc4)cc2)CNCC3)ccn1 [Compound 172]	631 nM	6.4	6.3	5.2	–	–	–	–	> 10000 nM	316 nM
1580 nM	O=C1NC2(CNC2)Cn2nc(-c3ccncc3)c(-c3ccc(OCc4ccc(C5CC5)cc4)cc3)c21 [Compound 183]	200 nM	6.0	–	5.6	–	–	–	173 °C	> 10000 nM	398 nM

Reference: US10280170B2, “Substituted 4,5,6,7-tetrahydro-pyrazolo[1,5-a]pyrazine derivatives and 5,6,7,8-tetrahydro-4H-pyrazolo[1,5-a][1,4]diazepine derivatives as Ros1 inhibitors” (Janssen Pharmaceutica NV, priority 2014, dated 2019)
